Tests used:
[1] = tested on: atherosclerotic plaques of the abdominal aorta; assay: 18F-FDG PET/CT of the abdominal aorta (mean SUV), rabbit model of atherosclerosis; format: in vivo, New Zealand White (NZW) rabbits; settings: single i.v. injection 15 mg/kg
Protocol: Seventeen male New Zealand White (NZW) rabbits (mean age 7 months; mean weight 3.5±0.2 kg; Covance) were included in this study. Aortic atherosclerotic plaques were induced in 15 NZW rabbits, through a well established model^18, by a combination of 7 months of high cholesterol diet (4.7% palm oil and 0.3% cholesterol-enriched diet; Research Diet Inc.) and a repeated balloon injury of the aorta (two weeks and six weeks after starting the high cholesterol diet). Aortic injury was performed from the aortic arch to the iliac bifurcation with a 4F Fogarty embolectomy catheter introduced through the femoral artery. […]
PET/CT images were analyzed on a Xeleris workstation. […] SUV was calculated by dividing the tissue concentration (kBq/mL) by the injected dose per gram of body weight (kBq/g).
The scans allow the quantification of the standard uptake value (SUV) of ^18F-FDG in the abdominal aorta. The SUV is the decay-corrected tissue concentration of FDG (in kBq/g), corrected for injected FDG dose and body weight (in kBq/g), and is a well-recognized method for quantification of FDG PET data. Prior to start of treatment, the aortas of six atherosclerotic rabbits and two non-atherosclerotic rabbits were measured to establish mean SUV levels of atherosclerotic and non-atherosclerotic rabbits.

[2] = tested on: atherosclerotic plaque permeability, aortic wall; assay: Dynamic contrast enhanced MRI (DCE-MRI) to quantify changes in plaque permeability; format: in vivo, New Zealand White (NZW) rabbits; settings: before vs two days after administration
neo-intimal formation = settings: prednisone- and Taxus stent-treated animals; Ribichini et al 2007; cited from earlier work

Compound | SUV differences between pre, and two and seven days post treatment [1] | SUV change one week post-treatment ([1]; one week post-treatment vs pre, p=0.006 (liposomal), p=0.40 (free)) | change of DCE-MRI area under the curve (AUC) of the aortic wall [2] | neo-intimal formation (neo-intimal formation)
prednisolone phosphate disodium salt [free circulating glucocorticoids] | no significant SUV differences | no SUV reduction | not | –
C[C@]12C=CC(=O)C=C1CC[C@@H]1[C@@H]2C(=O)C[C@@]2(C)[C@H]1CC[C@]2(O)C(=O)CO [prednisone] | – | – | – | reduced neo-intimal formation

— patent publication US20110189266A1, “CORTICOSTEROID MICROVESICLES FOR TREATMENT OF CARDIOVASCULAR DISEASES” (MOUNT SINAI SCHOOL OF MEDICINE OF NEW YORK UNIVERSITY, priority 2008, published 2011)
